Measurements taken from ChEMBL document CHEMBL1201862, “PubChem BioAssay data set” (2004).
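Compound exposure: 48 hours, 5 concentrations, 96-well plates. The concentration for 50% growth inhibition is given as GI50.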 Activity calls are given as the source filed them. Rule as the data show it: active = GI50 up to about 1.1 µM and inactive = higher.

How the values were obtained:
Assay in all cases: inhibition of tumour cell growth, NCI panel, 48 h
BT-549 = system: BT-549
SF-295 = system: SF-295
NCI-H522 = system: NCI-H522
HT-29 = system: HT-29
U-251 = system: U-251
UACC-62 = system: UACC-62
CCRF-CEM = system: CCRF-CEM
EKVX = system: EKVX
M14 = system: M14
SK-MEL-28 = system: SK-MEL-28
DU-145 = system: DU-145
SW-620 = system: SW-620
K562 = system: K562
Malme-3M = system: Malme-3M
NCI/ADR-RES = system: NCI/ADR-RES
ACHN = system: ACHN
OVCAR-5 = system: OVCAR-5
HOP-62 = system: HOP-62
SNB-75 = system: SNB-75
HCC 2998 = system: HCC 2998
HL-60 = system: HL-60
OVCAR-3 = system: OVCAR-3
LOX IMVI = system: LOX IMVI
CAKI-1 = system: CAKI-1
786-0 = system: 786-0
HCT-15 = system: HCT-15
COLO 205 = system: COLO 205
NCI-H23 = system: NCI-H23
NCI-H460 = system: NCI-H460
IGROV-1 = system: IGROV-1
MDA-N = system: MDA-N
Hs-578T = system: Hs-578T
PC-3 = system: PC-3
SK-MEL-5 = system: SK-MEL-5
SF-268 = system: SF-268
UACC-257 = system: UACC-257
SF-539 = system: SF-539
MDA-MB-231 = system: MDA-MB-231
SN12C = system: SN12C
HCT-116 = system: HCT-116
MCF7 = system: MCF7
NCI-H226 = system: NCI-H226
OVCAR-8 = system: OVCAR-8
A549 = system: A549
TK-10 = system: TK-10
UO-31 = system: UO-31
SK-OV-3 = system: SK-OV-3
OVCAR-4 = system: OVCAR-4
RXF 393 = system: RXF 393
HOP-92 = system: HOP-92
MDA-MB-435 = system: MDA-MB-435
SK-MEL-2 = system: SK-MEL-2
SNB-19 = system: SNB-19
RPMI-8226 = system: RPMI-8226
MOLT-4 = system: MOLT-4
KM12 = system: KM12
A498 = system: A498
SR = system: SR
T47D = system: T47D

Measured: GI50

CC1(C)CC(=O)C2=C(C1)NC(=S)C(C#N)C2c1ccccc1 (centres undefined)
> 100 µM: HCT-15
inactive: BT-549 > 100 µM | SF-295 > 100 µM | NCI-H522 > 100 µM | HT-29 > 100 µM | U-251 > 100 µM | UACC-62 > 100 µM | CCRF-CEM > 100 µM | EKVX > 100 µM | M14 > 100 µM | SK-MEL-28 > 100 µM | DU-145 > 100 µM | SW-620 > 100 µM | K562 75.9 µM | Malme-3M > 100 µM | NCI/ADR-RES > 100 µM | ACHN > 100 µM | OVCAR-5 > 100 µM | HOP-62 > 100 µM | SNB-75 > 100 µM | HCC 2998 > 100 µM | HL-60 > 100 µM | OVCAR-3 > 100 µM | LOX IMVI > 100 µM | CAKI-1 > 100 µM | 786-0 > 100 µM | COLO 205 > 100 µM | NCI-H23 > 100 µM | NCI-H460 > 100 µM | IGROV-1 > 100 µM | MDA-N > 100 µM | Hs-578T > 100 µM | PC-3 > 100 µM | SK-MEL-5 > 100 µM | SF-268 > 100 µM | UACC-257 > 100 µM | SF-539 > 100 µM | MDA-MB-231 > 100 µM | SN12C > 100 µM | HCT-116 > 100 µM | MCF7 > 100 µM | NCI-H226 > 100 µM | OVCAR-8 > 100 µM | A549 > 100 µM | TK-10 > 100 µM | UO-31 > 100 µM | SK-OV-3 > 100 µM | OVCAR-4 > 100 µM | RXF 393 > 100 µM | HOP-92 > 100 µM | MDA-MB-435 > 100 µM | SK-MEL-2 > 100 µM | SNB-19 > 100 µM

O=S(=O)(c1ccccc1)n1c2cc3cccnc3nc2c2cccnc21
71.3 µM: HCT-15
inactive: BT-549 > 100 µM | SF-295 49.8 µM | NCI-H522 33.3 µM | HT-29 60.4 µM | U-251 40.5 µM | CCRF-CEM 22.4 µM | EKVX > 100 µM | M14 > 100 µM | SK-MEL-28 > 100 µM | SW-620 44.7 µM | K562 17.3 µM | Malme-3M > 100 µM | NCI/ADR-RES > 100 µM | ACHN 62.7 µM | OVCAR-5 > 100 µM | HOP-62 60 µM | SNB-75 28.4 µM | HCC 2998 > 100 µM | HL-60 17.9 µM | RPMI-8226 18.5 µM | OVCAR-3 38.5 µM | LOX IMVI 42.5 µM | CAKI-1 > 100 µM | 786-0 71.8 µM | COLO 205 72.9 µM | MOLT-4 45.3 µM | NCI-H23 44.9 µM | NCI-H460 36.9 µM | KM12 > 100 µM | IGROV-1 79.1 µM | MDA-N 38.2 µM | A498 > 100 µM | Hs-578T > 100 µM | PC-3 97.9 µM | SK-MEL-5 54.3 µM | SF-268 56.8 µM | UACC-257 54.6 µM | MDA-MB-231 > 100 µM | SN12C 81.3 µM | SR 10.9 µM | HCT-116 82.2 µM | MCF7 46 µM | NCI-H226 > 100 µM | OVCAR-8 74.1 µM | A549 > 100 µM | TK-10 > 100 µM | UO-31 > 100 µM | SK-OV-3 > 100 µM | OVCAR-4 72.3 µM | RXF 393 27.6 µM | HOP-92 21.1 µM | MDA-MB-435 25.5 µM | SK-MEL-2 > 100 µM | SNB-19 40.1 µM

C=CC(C)(C)n1cc(C2=C(O)C(=O)C(c3c(CC=C(C)C)[nH]c4ccccc34)=C(O)C2=O)c2ccccc21
active: BT-549 0.571 µM | U-251 1.1 µM | UACC-62 0.34 µM | SK-MEL-28 0.575 µM | K562 0.476 µM | SNB-75 0.796 µM | HCC 2998 1.04 µM | LOX IMVI 0.998 µM | KM12 0.979 µM | IGROV-1 0.879 µM | MDA-N 0.718 µM | SF-268 0.548 µM | SR 0.745 µM | A549 0.624 µM | UO-31 0.67 µM | MDA-MB-435 0.711 µM
1.62 µM: HCT-15
inactive: SF-295 1.58 µM | NCI-H522 2.3 µM | HT-29 2.28 µM | T47D 2.47 µM | CCRF-CEM 1.92 µM | EKVX 1.91 µM | M14 1.34 µM | DU-145 1.55 µM | SW-620 3.43 µM | Malme-3M 1.82 µM | NCI/ADR-RES 2.47 µM | ACHN 1.56 µM | OVCAR-5 2.89 µM | HOP-62 1.25 µM | HL-60 1.86 µM | RPMI-8226 1.64 µM | OVCAR-3 1.32 µM | CAKI-1 2.39 µM | 786-0 2 µM | COLO 205 1.71 µM | MOLT-4 1.6 µM | NCI-H23 3.03 µM | NCI-H460 1.52 µM | A498 1.57 µM | Hs-578T 1.43 µM | PC-3 1.73 µM | SK-MEL-5 1.87 µM | UACC-257 2.88 µM | MDA-MB-231 1.81 µM | SN12C 1.57 µM | HCT-116 1.94 µM | NCI-H226 1.53 µM | OVCAR-8 1.3 µM | SK-OV-3 2.14 µM | OVCAR-4 2.19 µM | RXF 393 1.74 µM | HOP-92 1.46 µM | SK-MEL-2 1.59 µM | SNB-19 1.96 µM
